For data set [1] the following is noted: cited from earlier work.
The target of another data set is p300 (Homo sapiens, UniProt Q09472). The data set is described as follows: Histone Acetyltransferase (HAT) in vitro acetylation assay, western blot of H3K27ac / H3K18ac. The format is biochemical. The following applies: compound in DMSO, EC50 for activators. The protocol: The aim of the in vitro acetylation assay is to measure the enzymatic activity of the various compounds towards p300.
First, the drug is prepared:
Second, dilute p300 in AM1 buffer to a concentration of 40 ng/μL (final concentration in the reaction 20 ng/μL). This is accomplished by diluting 1 μL of p300 (at 0.4 μg/μL) into […] of AM1 buffer.
Third, prepare the Master Mix. Prepare the Master Mix in low protein binding tubes (ThermoFisher Cat. No. 90410), 20 μL system.
Incubate reactions at 30° C. for 30 minutes.
Incubate reactions at 30° C. for 1 hour.
Fourth, perform the western blot assay. • Add 6.7 μL of Laemmli Sample Buffer 4× (Bio-Rad Laboratories Cat. No. 161-0737) for each reaction and boil samples at 95° C. for 5 min. • Charge 10 μL for each sample in 2 Tris Glycine 4-15% gels (Bio-Rad Laboratories Cat. No. 456-1086). Running Buffer: Tris-Glycine 1× (pour in the cell up to the writing “2 gels”). • Run at 90 V for 1 hour (until the gel front reaches the green line of cell). • Semi-dry transfer with Trans-Blot® Turbo™ Blotting System from Bio-Rad Laboratories (Trans-Blot® Turbo™ RTA midi PVDF transfer kit Cat. No1704275). • Activate PVDF membrane in methanol for 5 minutes and then wet in Trans-Blot® Turbo™ transfer buffer. • Wet stacks in transfer buffer. • Transfer at 23 V 1.3 A for 7 minutes. • Blocking buffer: 5% Non-Fat milk in TBST (tween 0.1%) 1 hour at room temperature. • Cut the membranes to get Ac-His 3 at 17 kDa and p300 at 300 kDa. • Incubate with primary antibodies overnight at 4° C. • The day after, make 3 washes in TBST (Tween 0.1%) of 10 minutes. • Incubate with secondary antibody at room temperature for 1 hour. • Make 3 washes in TBST (Tween 0.1%) of 5 minutes. • Incubate membranes with ECL (SuperSignal West Dura Extended Duration Substrate from ThermoFisher) for 5 minutes at room temperature. • Acquire the image with ChemiDoc Odyssey Fc 2 minutes.
To detect total H3 (loading control), strip the membranes with Restore™ Western Blot Stripping Buffer according to the manufacturer protocol.
Various compounds were tested for enzymatic activity with respect to Lys 18 and Lys 27. EC50 is indicated for Activators and IC50 for inhibitors respectively.
FIGS. 1A to 25B are graphs showing the lysine residue acetylation as a function of concentration for the compounds set forth in Table 3. The shaded area corresponds to the average values of lysine residue acetylation (continuous line) and their standard error range measured in the absence of compound and DMSO. The number of replicates is represented by “n”.

Data set [2] is described as follows: Stability in human liver microsomes. The format is in vitro ADME. The protocol:
Some compounds were tested for stability in human liver microsomes as shown below in Table 2.
Mixed-gender human liver microsomes (Lot #1010420) were purchased from XenoTech. The reaction mixture, minus NADPH, was prepared as described below. The test article was added into the reaction mixture at a final concentration of 1 μM. The control compound, testosterone, was run simultaneously with the test article in a separate reaction. An aliquot of the reaction mixture (without cofactor) was equilibrated in a shaking water bath at 37° C. for 3 minutes. The reaction was initiated by the addition of the cofactor, and the mixture was incubated in a shaking water bath at 37° C. Aliquots (100 μL) were withdrawn at 0, 10, 20, 30, and 60 minutes. Test article and testosterone samples were immediately combined with 400 μL of ice-cold 50/50 acetonitrile (ACN)/H2O containing 0.1% formic acid and internal standard to terminate the reaction. The samples were then mixed and centrifuged to precipitate proteins. All samples were assayed by LC-MS/MS using electrospray ionization. Analytical conditions are outlined in Appendix 1. The peak area response ratio (PARR) to internal standard was compared to the PARR at time 0 to determine the percent remaining at each time point. Half-lives and clearance were calculated using GraphPad software, fitting to a single-phase exponential decay equation.
Liver Microsomes 0.5 mg/mL NADPH (cofactor) 1 mM
Potassium Phosphate, pH 7.4 100 mM
Intrinsic clearance (CLint) was calculated based on CLint=k/P, where k is the elimination constant and P is the protein concentration in the incubation.
A general note: Liver microsomes are a subcellular fraction often used to study metabolism.

In data set [3] the test system is hippocampal slices from WT mice. The data set is described as follows: Long-term potentiation (LTP) in hippocampal slices perfused with oTau or oAβ. The class given is cell-based. The conditions noted are these: slices perfused with compound and either oTau (50 nM) or oAβ (200 nM). An excerpt: Synaptic dysfunction is a major hallmark of AD (Histol Histopathol, 1995. 10(2): p. 509-19; herein incorporated by reference in its entirety). An aspect of the drug screening protocol can include a measurement of the effect of compounds onto synaptic function. Amyloid-beta (Aβ) is a toxic peptide that is thought to underlie subtle amnesic changes occurring at early stages of Alzheimer's disease. It impairs both memory and its electrophysiological surrogate, long-term potentiation (LTP). LTP can be examined because it is a type of synaptic plasticity thought to underlie learning and memory. RA010115 can rescue the Aβ-induced reduction of LTP, and other compounds can also be screened to identify those that can re-establish normal LTP. The compounds can be applied for 20 min. Controls can be performed on slices in the absence of Aβ, and mice treated with compound. Tau is another peptide that is involved in cell to cell communication, and impairs both memory and LTP in animal models of AD and other tauopathies. FIG. 26 is a graph showing that RA010115 rescues oligomeric Tau (oTau)- and oligomeric Aβ (o Aβ)-induced LTP deficits. LTP was impaired in hippocampal slices from WT mice perfused with oTau (50 nM) and oAβ (200 nM), whereas there was no impairment in slices treated with RA10115 or vehicle. LTP was restored in slices perfused with RA010115 and either oTau or oAβ. The horizontal solid bar represents oAβ and oTau perfusion while the horizontal dashed bar represents RA010115. The three arrows correspond to the theta-burst stimulation. […]

pEC50: −log10 of the molar value. “Also recorded” adds a separate entry of the source. Read-outs that look alike come from different tables or passages of the source.

p300, sequence (Q09472 whole entry, species assumed): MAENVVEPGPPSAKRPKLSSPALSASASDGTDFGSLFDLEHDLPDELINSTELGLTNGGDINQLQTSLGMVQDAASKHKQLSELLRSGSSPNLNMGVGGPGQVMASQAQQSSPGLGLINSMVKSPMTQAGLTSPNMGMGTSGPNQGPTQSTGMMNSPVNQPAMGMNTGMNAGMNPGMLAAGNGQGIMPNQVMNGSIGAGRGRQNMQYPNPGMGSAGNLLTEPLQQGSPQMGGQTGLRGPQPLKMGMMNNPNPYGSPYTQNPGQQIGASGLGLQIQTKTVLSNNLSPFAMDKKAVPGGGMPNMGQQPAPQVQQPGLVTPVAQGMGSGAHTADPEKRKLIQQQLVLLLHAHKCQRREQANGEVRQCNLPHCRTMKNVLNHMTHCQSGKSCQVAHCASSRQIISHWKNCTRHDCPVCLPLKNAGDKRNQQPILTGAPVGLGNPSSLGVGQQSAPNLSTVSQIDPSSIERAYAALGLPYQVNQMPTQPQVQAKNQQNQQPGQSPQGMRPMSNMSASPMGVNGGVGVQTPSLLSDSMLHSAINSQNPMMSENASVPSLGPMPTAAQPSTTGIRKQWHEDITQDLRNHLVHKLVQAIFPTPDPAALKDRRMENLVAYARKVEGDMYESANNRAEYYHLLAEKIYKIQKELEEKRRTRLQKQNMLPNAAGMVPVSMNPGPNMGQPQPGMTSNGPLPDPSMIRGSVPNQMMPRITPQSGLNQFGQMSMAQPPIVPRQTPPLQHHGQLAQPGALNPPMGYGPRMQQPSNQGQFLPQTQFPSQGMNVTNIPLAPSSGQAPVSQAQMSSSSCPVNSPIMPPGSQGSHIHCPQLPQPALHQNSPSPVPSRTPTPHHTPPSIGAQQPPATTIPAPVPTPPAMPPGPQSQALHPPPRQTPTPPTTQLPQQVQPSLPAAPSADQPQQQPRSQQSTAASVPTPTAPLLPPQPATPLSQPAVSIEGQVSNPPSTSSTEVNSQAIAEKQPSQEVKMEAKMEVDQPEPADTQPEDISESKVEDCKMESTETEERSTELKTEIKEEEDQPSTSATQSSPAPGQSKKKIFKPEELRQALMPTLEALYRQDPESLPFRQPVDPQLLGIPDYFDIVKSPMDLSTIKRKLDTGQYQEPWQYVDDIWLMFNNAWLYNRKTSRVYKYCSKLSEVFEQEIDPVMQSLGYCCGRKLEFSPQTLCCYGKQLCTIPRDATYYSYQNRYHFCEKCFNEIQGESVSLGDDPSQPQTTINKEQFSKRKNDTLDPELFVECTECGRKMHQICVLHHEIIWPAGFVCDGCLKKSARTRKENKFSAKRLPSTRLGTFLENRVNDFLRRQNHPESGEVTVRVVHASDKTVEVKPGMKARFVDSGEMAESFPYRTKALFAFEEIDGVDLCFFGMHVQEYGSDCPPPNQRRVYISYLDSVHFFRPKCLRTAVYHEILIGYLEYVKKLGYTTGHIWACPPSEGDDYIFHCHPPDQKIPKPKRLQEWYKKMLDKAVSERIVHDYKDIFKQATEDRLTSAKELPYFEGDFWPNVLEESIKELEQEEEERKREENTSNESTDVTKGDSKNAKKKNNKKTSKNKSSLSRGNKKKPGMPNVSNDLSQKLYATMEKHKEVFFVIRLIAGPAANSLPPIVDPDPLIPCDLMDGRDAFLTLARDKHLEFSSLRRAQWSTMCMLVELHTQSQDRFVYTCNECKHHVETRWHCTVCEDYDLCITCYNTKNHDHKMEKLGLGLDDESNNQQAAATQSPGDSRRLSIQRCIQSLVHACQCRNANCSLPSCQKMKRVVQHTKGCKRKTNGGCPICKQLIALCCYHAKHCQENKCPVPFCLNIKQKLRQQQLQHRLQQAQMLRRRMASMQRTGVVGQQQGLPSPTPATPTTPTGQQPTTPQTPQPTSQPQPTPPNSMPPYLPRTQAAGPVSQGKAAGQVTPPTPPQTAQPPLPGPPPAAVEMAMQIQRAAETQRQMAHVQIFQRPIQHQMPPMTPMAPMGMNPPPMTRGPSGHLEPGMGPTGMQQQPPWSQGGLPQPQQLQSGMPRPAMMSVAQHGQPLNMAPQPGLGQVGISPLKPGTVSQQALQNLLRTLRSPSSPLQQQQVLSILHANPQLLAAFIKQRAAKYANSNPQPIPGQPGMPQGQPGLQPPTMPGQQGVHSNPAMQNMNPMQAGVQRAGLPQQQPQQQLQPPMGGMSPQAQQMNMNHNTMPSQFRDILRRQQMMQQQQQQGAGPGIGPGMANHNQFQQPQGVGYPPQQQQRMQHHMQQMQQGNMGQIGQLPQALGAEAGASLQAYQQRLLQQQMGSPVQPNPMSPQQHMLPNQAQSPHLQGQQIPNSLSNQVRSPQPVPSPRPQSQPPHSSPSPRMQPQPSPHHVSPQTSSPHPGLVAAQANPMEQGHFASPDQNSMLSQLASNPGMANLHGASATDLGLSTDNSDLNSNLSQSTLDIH

Regarding `CCCCCCCCCCCCCCCc1cccc(OCC)c1C(=O)Nc1ccc(Cl)c(C(F)(F)F)c1` [CTPB], the Solubility result in data set [1] is on record as “insoluble”.
As for `CCOc1ccccc1C(=O)Nc1ccc(Cl)c(C(F)(F)F)c1` [CTB], the Solubility result in data set [1] is given as “insoluble”.
Consider `CCOc1cccc(OCCN(C)C)c1C(=O)Nc1ccc(Cl)c(C(F)(F)F)n1` [RA013915], for which the negative-log EC50 (pEC50) (usually the negative decadic logarithm of the EC50, by convention in mol/L) at p300 (read-out: H3-Lys 18 EC50) was 7.14; on p300 (read-out: H3-Lys 27 EC50) it was 7.24. Further, the microsomal CLint at 1 μM in data set [2] (both sexes, human, liver microsomes, pH 7.4, human liver microsomes, 1 μM, read-out: CLint) worked out at 43.2 µL/min/mg. Moreover, the half-life – broadly, the time needed for the level to fall by half in the phase considered – at 1 μM in data set [2] (both sexes, human, liver microsomes, pH 7.4, human liver microsomes, 1 μM, read-out: Half-life) turned out to be 32.1 min. Further, the “% Remaining of Initial (n = 1) 0 min” value in data set [2] (human liver microsomes, test article 1 μM, 0 min) turned out to be 100%. The “% Remaining of Initial (n = 1) 10 min” value in data set [2] (human liver microsomes, test article 1 μM, 10 min) is 79.6%. For the same compound, in data set [2] (human liver microsomes, test article 1 μM, 20 min), the “% Remaining of Initial (n = 1) 20 min” value is 63.8%. For the same compound, the “% Remaining of Initial (n = 1) 30 min” value in data set [2] (human liver microsomes, test article 1 μM, 30 min) is 52.4%. Besides, the “% Remaining of Initial (n = 1) 60 min” value in data set [2] (human liver microsomes, test article 1 μM, 60 min) is recorded as 27.6%. Moreover, the “oTau- and oAβ-induced LTP deficits” value in data set [3] is reported as “restored; also recorded: rescues”.
